# Data reported in ChEMBL document CHEMBL1153237, “3-(3-Aryloxyaryl)imidazo[1,2-a]pyridine sulfones as liver X receptor agonists” (Bioorg Med Chem Lett, 2010).
# How the values were obtained:
# [1] = tested on: THP-1; test: Induction of ABCA1 mRNA upregulation in human THP1 cells relative to T0901317; assay type: functional
# [2] = tested on: HepG2; test: Cytotoxic effect as decreased triglyceride level in HepG2 cells after 3 uM treatment; assay type: cell-based; details: human, hepg2, 3 µM
# [3] = tested on: HepG2; test: Cytotoxic effect as decreased triglyceride level in HepG2 cells after 10 uM treatment; assay type: cell-based; details: human, hepg2, 10 µM
# [4] = Half life in mouse liver microsomes; assay type: ADME, Microsome
# [5] = Half life in rat liver microsomes; assay type: ADME, Microsome
# [6] = Half life in human liver microsomes; assay type: ADME, Microsome
# [7] = AUC (0 to last) in C57 mouse at 10 mg/kg, po; assay type: ADME, organism-based; design: dose 10 mg/kg, route oral, time 0 - last; details: plasma
# [8] = Tmax in C57 mouse at 10 mg/kg, po; assay type: ADME, organism-based; design: dose 10 mg/kg, route oral; details: in vivo
# [9] = Half life in C57 mouse at 10 mg/kg, po; assay type: ADME, organism-based; design: dose 10 mg/kg, route oral; details: in vivo
# [10] = Solubility of the compound; assay type: physicochemical
# [11] = Cmax in C57 mouse at 10 mg/kg, po; assay type: ADME, organism-based; design: dose 10 mg/kg, route oral; details: in vivo
# [12] = tested on: THP-1; test: cells; details: Homo sapiens
# [13] = tested on: HepG2; test: Increase in cellular triglyceride level in human HepG2 cells relative to T0901317; assay type: functional
# [14] = tested on: HepG2; test: cells; details: Homo sapiens
# [15] = Cmax in C57 mouse at 2.5 mg/kg, po; assay type: ADME, organism-based; design: dose 2.5 mg/kg, route oral; details: in vivo
# [16] = AUC (0 to last) in C57 mouse at 2.5 mg/kg, po; assay type: ADME, organism-based; design: time 0 - last, dose 2.5 mg/kg, route oral; details: plasma
# [17] = Tmax in C57 mouse at 2.5 mg/kg, po; assay type: ADME, organism-based; design: dose 2.5 mg/kg, route oral; details: in vivo
# [18] = molecular target: T1, Oxysterols receptor LXR-beta (Homo sapiens, UniProt P55055); details: huh-7
# [19] = molecular target: T2, Oxysterols receptor LXR-alpha (Homo sapiens, UniProt Q13133)
# T2 sequence (Q13133 whole entry): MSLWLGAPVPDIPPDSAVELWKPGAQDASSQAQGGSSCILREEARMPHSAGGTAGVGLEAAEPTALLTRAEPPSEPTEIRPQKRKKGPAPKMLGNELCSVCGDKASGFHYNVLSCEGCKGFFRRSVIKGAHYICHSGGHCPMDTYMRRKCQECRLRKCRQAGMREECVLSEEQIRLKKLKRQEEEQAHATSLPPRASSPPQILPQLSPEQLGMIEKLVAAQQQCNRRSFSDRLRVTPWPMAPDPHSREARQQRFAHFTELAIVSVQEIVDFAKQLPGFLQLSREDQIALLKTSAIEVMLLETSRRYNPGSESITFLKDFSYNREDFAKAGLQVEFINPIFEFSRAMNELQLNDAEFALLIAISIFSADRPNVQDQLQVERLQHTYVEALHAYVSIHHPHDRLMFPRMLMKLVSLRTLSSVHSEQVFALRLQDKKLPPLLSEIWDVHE
# [20] = molecular target: T1, Oxysterols receptor LXR-beta
# [21] = molecular target: T2, Oxysterols receptor LXR-alpha; details: huh-7
# T1 sequence (P55055 whole entry): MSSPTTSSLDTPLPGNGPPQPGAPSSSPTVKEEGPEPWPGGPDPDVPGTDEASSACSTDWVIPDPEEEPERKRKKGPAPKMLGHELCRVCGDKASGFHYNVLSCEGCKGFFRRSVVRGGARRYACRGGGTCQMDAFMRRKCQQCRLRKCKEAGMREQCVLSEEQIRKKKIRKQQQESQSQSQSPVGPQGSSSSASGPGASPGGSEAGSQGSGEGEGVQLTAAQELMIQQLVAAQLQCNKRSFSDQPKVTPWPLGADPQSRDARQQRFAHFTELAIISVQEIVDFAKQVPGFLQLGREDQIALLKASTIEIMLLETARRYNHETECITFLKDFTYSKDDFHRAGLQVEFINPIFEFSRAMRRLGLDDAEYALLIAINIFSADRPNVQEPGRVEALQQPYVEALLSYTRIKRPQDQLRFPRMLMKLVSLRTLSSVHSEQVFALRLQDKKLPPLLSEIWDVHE
half-life [4] [min],half-life [5] [min],half-life [6] [min],solubility [10] [µg/mL],EC50 [12] [nM],EC50 [14] [nM],SMILES,Efficacy [1] [%],Efficacy [13] [%],also measured
30,30,21,68,130,,CCS(=O)(=O)c1cccc(Oc2cccc(-c3c(C)nc4c(C(F)(F)F)cccn34)c2)c1,100,,Decreased_triglyceride [2]: Cytotoxic potential; Decreased_triglyceride [3]: Cytotoxic potential; AUC(0-t) [7]: 7790 ng·h/mL; Tmax [8]: 60 min; half-life [9]: 366 min; Cmax [11]: 1420 ng/mL
2,5,3,73,44,128,CS(=O)(=O)c1cccc(Oc2cccc(-c3c(CN4CCCCC4)nc4c(C(F)(F)F)cccn34)c2)c1,100,26,
2,7,19,3,120,65,CS(=O)(=O)c1cccc(Oc2cccc(-c3c(Cc4ccccc4)nc4c(C(F)(F)F)cccn34)c2)c1,105,81,
,,,< 1,,,Cc1cnc2c(C(F)(F)F)cccc2c1-c1cccc(Oc2cccc(S(C)(=O)=O)c2)c1,,,Cmax [15]: 457 ng/mL; AUC(0-t) [16]: 1690 ng·h/mL; Tmax [17]: 120 min
,,,,,,CC(C)c1nc2c(C(F)(F)F)cccn2c1-c1ccc(-c2cccc(S(C)(=O)=O)c2)cc1,,,EC50 [18]: Not Active
,,,,,,CC(C)c1nc2c(C(F)(F)F)cccn2c1-c1ccc(-c2ccc(S(C)(=O)=O)cc2)cc1,,,IC50 [19]: > 1000 nM; IC50 [20]: > 1000 nM; EC50 [21]: Not Active; EC50 [18]: Not Active
30,30,30,,,,O=S(=O)(c1ccccc1)N(CC(F)(F)F)c1ccc(C(O)(C(F)(F)F)C(F)(F)F)cc1 [T091317],100,,
,,,214,,,Cc1nc2c(C(F)(F)F)cccc2n1-c1cccc(Oc2cccc(S(C)(=O)=O)c2)c1,,,AUC(0-t) [7]: 8940 ng·h/mL; Tmax [8]: 120 min; Cmax [11]: 614 ng/mL
3,23,6,1,10,42,CS(=O)(=O)c1cccc(Oc2cccc(-c3c(CN4CCSC4)nc4c(C(F)(F)F)cccn34)c2)c1,98,36,
20,30,30,228,243,227,CCc1nc2c(C(F)(F)F)cccn2c1-c1cccc(Oc2cccc(S(C)(=O)=O)c2)c1,65,38,
,,,,,,CC(C)c1nc2c(C(F)(F)F)cccn2c1-c1cccc(OCc2ccc(S(C)(=O)=O)cc2)c1,,,IC50 [19]: > 1000 nM; IC50 [20]: > 1000 nM
30,30,30,> 100,125,72,Cc1nc2c(C(F)(F)F)cccn2c1-c1cccc(Oc2cccc(S(C)(=O)=O)c2)c1,99,8,Decreased_triglyceride [2]: Cytotoxic potential; AUC(0-t) [7]: 4670 ng·h/mL; Tmax [8]: 15 min; half-life [9]: 270 min; Cmax [11]: 1140 ng/mL
